Key:
[1] = molecular target: T1, human ERβ (ERβ-LBD) (Homo sapiens, UniProt Q92731); assay: Binding assay 1: estrogen receptor SPA binding assay (3H-E2 displacement), ERβ; details: read-out: binding affinity to the estrogen receptor β-subtype, IC50
T1 construct: ERβ (ERβ-LBD, pET-N-AT #1, aa 255-530); made in house; host or cells: E. coli BL21 (DE3) pBirA
Description: Binding Assay 1: Estrogen Receptor Binding Assay
The estrogen receptor ligand binding assays are designed as scintillation proximity assays (SPA), employing the use of tritiated estradiol (^3H-E2) and recombinant expressed biotinylated estrogen receptor binding domains. The binding domains of human ERα (ERα-LBD, pET-N-AT #1, aa 301-595) and ERβ (ERβ-LBD, pET-N-AT #1, aa 255-530) proteins are produced in E. coli ((BL21, (DE3), pBirA)) at 22 C in 2×LB medium supplemented with 50 uM biotin. After 3 h of IPTG induction (0.55 mM), cells are harvested by centrifugation at 7300×g for 15 min and cell pellets stored frozen in −20 C. Extraction of ERα and ERβ are performed using 5 g of cells suspended in 50 mL of extraction buffer (50 mM Trig, pH 8.0, 100 mM KCl, 4 mM EDTA, 4 mM DDT and 0.1 mM PMSF). The cell suspension is run twice through a Microfluidizer M-110L (Microfluidics) and centrifuged at 15,000×g for 60 min. The supernatant is aliquoted and stored in −70 C.
Dilute ERα-LBD or ERβ-LBD extracts in assay buffer (18 mM K2HPO4, 2 mM KH2PO4, 20 mM NasMoO4, 1 mM EDTA, 1 mM TCEP) 1:676 and 1:517 for alpha and beta respectively. The diluted receptor concentrations should be 900 fmol/L. Preincubate the extracts with streptavidin coated polyvinyltoluene SPA beads (RPNQ0007, GE Healthcare) at a concentration of 0.43 mg/mL for 1 hr at room temperature.
Test compounds are evaluated over a range of concentrations from 157 μM to 37.5 pM. The test compound stock solutions should be made in 100% DMSO at 5× of the final concentration desired for testing in the assay. The amount of DMSO in the test wells of the 384 well plate will be 20%. Add 18 μl aliquots of test compounds to the assay plates followed by 35 μl of the preincubated receptor/SPA bead mix and finally add 35 μl of 3 nM ^3H-E2. Cover the plates with a plastic sealer, centrifuge for 1 minute at 1000 rpm and equilibrate over night on a shaker at room temperature. The following morning, centrifuge the plates 5 minutes at 2000 rpm and measure on a plate scintillation counter e.g. a PerkinElmer Microbeta 1450 Trilux.
For compounds able to displace 3[H]-E2 from the receptor an IC50-value (the concentration required to inhibit 50% of the binding of 3[H]-E2) is determined by a non-linear four parameter logistic model; b=((bmax−bmin)/(1+(I/IC50)S))+bmin I is added concentration of binding inhibitor, IC50 is the concentration of inhibitor at half maximal binding and S is a slope factor. The Microbeta-instrument generates the mean cpm (counts per minute) value/minute and corrects for individual variations between the detectors thus generating corrected cpm values.

[2] = molecular target: T2, human estrogen receptor beta (hERβ 530) (Homo sapiens, UniProt Q92731); assay: Transactivation assay 2: HEK293 cells stably transfected with pERE2-ALP and human estrogen receptor beta; format: cell-based; details: read-out: potency at the estrogen receptor β-subtype, EC50
T2 construct: expressed in transfected cells
Description: Transactivation Assay 2: Transactivation Assay in Human Embryonic Kidney 293 Cells Stably Transfected with pERE2-ALP and Human Estrogen Receptor Beta
Generation of stable HEK293 cell lines (CRL-1573; American Type Culture Collection) expressing the reporter vector pERE2-ALP and human estrogen receptor beta (hERβ 530) have been described (Mol Pharmacol 1998, 54, 105-112; Endocrinology 2002, 143, 1558-1561),
The cells were seeded in 384-well plates at 12 500 cells per well in Ham's F12 Coon's modification (without phenol red) with 10% dextran-coated charcoal treated (DCC) fetal bovine serum (FBS), 2 mM L-glutamine and 50 μg/ml gentamicin. After 24 h incubation (37° C., 5% CO2) the seeding medium was discarded and replaced with 20 μl Ham's F12 Coon's modification (without phenol red) with 1.5 DCC-FCS, 2 mM L-glutamine and supplemented with 100 U/ml penicillin and 100 μg/ml streptomycin. The selected compounds were added to the wells in 12 concentrations ranging from […] to 33 μM. The compounds were dissolved in 100% dimethylsulfoxide (DMSO) and the final concentration of DMSO in the assay was 0.1%. After 72 h incubation (37° C., 5% CO2) the medium was assayed for ALP activity by a chemiluminescence assay; a 10 μl aliquot of the conditioned medium was mixed with 100 μl assay buffer (0.1 M diethanolamine, 1 mM MgCl2) and 0.5 mM disodium 3-(4-methoxyspiro 1,2-dioxetane-3,2′-(5′-chloro)-tricyclo[3.3.1.13,7]decan-4-yl)phenyl phosphate (CSPD) (Tropix, Applied Biosystems) and incubated for 20 min at 37° C. and 15 min at room temperature before measurement of the chemiluminescent signal (one second per well) in a Wallac Microbeta Trilux 1450-028 (PerkinElmer). The ALP activity expressed in LCPS is directly proportional to the level of ALP expressed by the cells. The half maximal effective concentrations of the test compounds (EC50) were calculated from the curves fitted to the concentration-response data with a four parameter logistic model in XLfit software version 2.0 (IDBS) or later.

T1 sequence (Q92731 255-530): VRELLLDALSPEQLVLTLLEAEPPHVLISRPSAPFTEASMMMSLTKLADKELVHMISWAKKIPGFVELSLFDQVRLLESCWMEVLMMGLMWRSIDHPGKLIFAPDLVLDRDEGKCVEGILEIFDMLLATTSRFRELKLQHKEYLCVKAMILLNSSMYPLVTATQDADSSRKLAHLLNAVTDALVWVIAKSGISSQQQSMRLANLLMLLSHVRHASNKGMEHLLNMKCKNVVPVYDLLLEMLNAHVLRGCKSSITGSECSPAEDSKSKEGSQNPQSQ
T2 sequence (Q92731 whole entry): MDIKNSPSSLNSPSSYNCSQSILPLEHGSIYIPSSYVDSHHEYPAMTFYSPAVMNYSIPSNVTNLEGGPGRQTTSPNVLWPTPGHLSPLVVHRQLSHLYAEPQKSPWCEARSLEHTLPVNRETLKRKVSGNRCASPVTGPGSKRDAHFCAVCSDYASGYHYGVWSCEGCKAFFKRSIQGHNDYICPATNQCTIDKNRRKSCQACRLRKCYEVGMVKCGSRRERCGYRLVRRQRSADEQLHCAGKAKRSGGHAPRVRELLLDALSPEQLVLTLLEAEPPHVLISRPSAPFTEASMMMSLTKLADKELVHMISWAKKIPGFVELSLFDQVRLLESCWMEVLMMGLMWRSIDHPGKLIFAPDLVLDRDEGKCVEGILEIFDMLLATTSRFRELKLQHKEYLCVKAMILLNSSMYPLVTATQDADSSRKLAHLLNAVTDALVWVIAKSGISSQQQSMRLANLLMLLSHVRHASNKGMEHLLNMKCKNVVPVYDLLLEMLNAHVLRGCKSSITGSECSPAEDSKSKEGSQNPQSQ

IC50 [1] [nM] | EC50 [2] [nM] | SMILES
1 to 200 | 1 to 50 | CC(C)=Cc1c(C#N)c2ccccc2n1-c1ccc(O)cc1 [Example 39, 2-(Isobut-1-enyl)-1-(4-hydroxyphenyl)-1H-indole-3-carbonitrile]
1 to 200 | 1 to 50 | Cc1ccc(C)n1-c1c(/C(N)=N/O)c2ccccc2n1-c1ccc(O)cc1 [Example 194, (Z)-2-(2,5-dimethyl-1H-pyrrol-1-yl)-N′-hydroxy-1-(4-hydroxyphenyl)-1H-indole-3-carboximidamide]
1 to 200 | 1 to 50 | CC(C)=Cc1c(/C(N)=N/O)c2cc(F)ccc2n1-c1ccc(O)cc1 [Example 223, (Z)-5-fluoro-N′-hydroxy-1-(4-hydroxyphenyl)-2-(2-methylprop-1-enyl)-1H-indole-3-carboximidamide]
1 to 200 | 1 to 50 | Cc1noc(C)c1-c1c(/C(N)=N/O)c2cc(F)ccc2n1-c1ccc(O)cc1 [Example 221, (Z)-2-(3,5-dimethylisoxazol-4-yl)-5-fluoro-N′-hydroxy-1-(4-hydroxyphenyl)-1H-indole-3-carboximidamide]
1 to 200 | 1 to 50 | C/C=C\c1c(C#N)c2ccccc2n1-c1ccc(O)cc1 [Example 68, 1-(4-Hydroxy-phenyl)-2-((Z)-propenyl)-1H-indole-3-carbonitrile]
1 to 200 | 1 to 50 | Cc1noc(C)c1-c1c(/C(N)=N/O)c2ccccc2n1-c1ccc(O)cc1 [Example 11, (Z)-2-(3,5-dimethylisoxazol-4-yl)-N′-hydroxy-1-(4-hydroxyphenyl)-1H-indole-3-carboximidamide]
1 to 200 | 1 to 50 | C=C(C)c1c(-c2ccccc2)n(-c2ccc(O)cc2)c2ccccc12 [Example 163, 4-(3-Isopropenyl-2-phenyl-indol-1-yl)-phenol]

Further lines, the compound ahead of its results:

SMILES | IC50 [1] [nM] | EC50 [2] [nM]
Cc1noc(C)c1-c1c(C(N)=NO)c2ccccc2n1-c1ccc(O)cc1F [Example 235, (Z)-2-(3,5-dimethylisoxazol-4-yl)-1-(2-fluoro-4-hydroxyphenyl)-N′-hydroxy-21H-indole-3-carboximidamide] | 1 to 200 | 1 to 50
Cc1cccn1-c1c(/C(N)=N/O)c2ccccc2n1-c1ccc(O)cc1 [Example 188, (Z)-N′-hydroxy-1-(4-hydroxyphenyl)-2-(2-methyl-1H-pyrrol-1-yl)-1H-indole-3-carboximidamide] | 1 to 200 | 1 to 50
C/C=C(/C)c1c(/C(N)=N/O)c2ccccc2n1-c1ccc(O)cc1 [Example 191, (Z)-2-((Z)-but-2-en-2-yl)-N′-hydroxy-1-(4-hydroxyphenyl)-1H-indole-3-carboximidamide] | 1 to 200 | 1 to 50
CC(C)=Cc1c(C#N)c2cc(F)ccc2n1-c1ccc(O)cc1 [Example 220, 5-Fluoro-1-(4-hydroxy-penyl)-2-(2-methyl-prop-1-enyl)-1H-indole-3-carbonitrile] | 1 to 200 | 1 to 50
Cc1noc(C)c1-c1c(-c2ccccc2)c2ccccc2n1-c1ccc(O)cc1 [Example 42, 4-(2-(3,5-dimethylisoxazol-4-yl)-3-phenyl-1H-indol-1-yl)phenol] | 1 to 200 | 1 to 50

— patent US8653072B2, “Estrogen receptor ligands” (Karo Bio AB, priority 2008, dated 2014)
